Laboratory results from patent publication US20260365646A1, “AKT1 MODULATORS” (Alterome Therapeutics, Inc., priority 2022, published 2026).
pEC50: −log10 of the molar value. Where two headings read alike, the source gives them in different places.

Target: T1, full length AKT E17K (Homo sapiens, UniProt P31749, E17K)
T1 construct: host or cells: HEK-293 (ATCC CRL-1573)
Assay: NanoBRET Target Engagement (TE) Intracellular Kinase Assay
Format: cell-based
Method in brief: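 Live-cell BRET assay: cells expressing NanoLuc-fused full-length AKT E17K incubated 2 h with tracer at target-optimized concentration plus compound. BRET read at 450 nm donor/600 nm acceptor with extracellular NanoLuc inhibitor. EC50 from sigmoidal variable-slope fit of tracer displacement.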

[1] = read-out: NanoBRET AKT1E17K EC50, HEK-293 cells transfected with NanoLuc-AKT E17K, competitive displacement of NanoBRET tracer, 2 hr equilibration, 10-point 3-fold dilution

T1 sequence (P31749 whole entry E17K): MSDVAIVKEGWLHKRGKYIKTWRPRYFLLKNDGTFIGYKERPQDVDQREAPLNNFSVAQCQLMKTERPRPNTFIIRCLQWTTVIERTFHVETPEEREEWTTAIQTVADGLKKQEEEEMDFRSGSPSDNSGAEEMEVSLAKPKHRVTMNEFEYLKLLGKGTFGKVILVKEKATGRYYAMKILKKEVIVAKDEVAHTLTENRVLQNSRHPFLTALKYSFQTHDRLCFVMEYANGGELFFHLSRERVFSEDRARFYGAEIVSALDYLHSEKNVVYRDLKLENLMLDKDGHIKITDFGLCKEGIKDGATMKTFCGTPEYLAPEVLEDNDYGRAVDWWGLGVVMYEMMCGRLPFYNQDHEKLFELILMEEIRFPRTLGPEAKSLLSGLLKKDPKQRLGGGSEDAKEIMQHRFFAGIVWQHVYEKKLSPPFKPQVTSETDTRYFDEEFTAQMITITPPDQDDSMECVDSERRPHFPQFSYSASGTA

SMILES	pEC50 [1]	pEC50
COc1c(N(C)C2CCN(C(C)c3ccc(-n4c(-c5cccnc5N)nc5ccc(-c6ccccc6)nc54)cc3)CC2)c(=O)c1=O (stereo not shown) [Example 90, 3-((1-(1-(4-(2-(2-aminopyridin-3-yl)-5-phenyl-3H-imidazo[4,5-b]pyridin-3-yl)phenyl)ethyl)piperidin-4-yl)(methyl)amino)-4-methoxycyclobut-3-ene-1,2-dione]	> 7.82	–
CCOc1c(N2CC3(CN(Cc4ccc(-n5c(-c6cccnc6N)nc6ccc(-c7ccccc7)nc65)cc4)C3)C2)c(=O)c1=O [Example 40, 3-(6-(4-(2-(2-Aminopyridin-3-yl)-5-phenyl-3H-imidazo[4,5-b]pyridin-3-yl)benzyl)-2,6-diazaspiro[3.3]heptan-2-yl)-4-ethoxycyclobut-3-ene-1,2-dione]	> 7.82	–
COc1c(N[C@@H]2CCCN(Cc3ccc(-n4c(-c5cccnc5N)nc5ccc(-c6ccccc6)nc54)cc3)C2)c(=O)c1=O [Example 34, (R)-3-((1-(4-(2-(2-aminopyridin-3-yl)-5-phenyl-3H-imidazo[4,5-b]pyridin-3-yl)benzyl)piperidin-3-yl)amino)-4-methoxycyclobut-3-ene-1,2-dione]	> 7.82	–
Nc1ncccc1-c1nc2ccc(-c3ccccc3)nc2n1-c1ccc(CN2CCC(Nc3c(OC4CCCC4)c(=S)c3=O)CC2)cc1 [Example 15, 2-((1-(4-(2-(2-Aminopyridin-3-yl)-5-phenyl-3H-imidazo[4,5-b]pyridin-3-yl)benzyl)piperidin-4-yl)amino)-3-(cyclopentyloxy)-4-thioxocyclobut-2-en-1-one]	–	6.22 to 7.22
